Results: patent publication US8044048B2, “Derivatives of sulindac, use thereof and preparation thereof” (Southern Research Institute, priority 2006, dated 2011)
Where two headings read alike, the source gives them in different places.

What was measured:
[1] = tested on: human HT29 colon tumor cell line; experiment: Growth inhibitory activity / in vitro cytotoxicity against human HT29 colon tumor cells
Text: These toxicities include gastrointestinal, renal and hematological disturbances which results from COX-1 inhibition as well as cardiovascular toxicity which likely results from COX-2 inhibition.

[2] = Toxicity in mice, maximum tolerated dose; type: in vivo
Procedure: FIGS. 5A and 5B show the reduced toxicity of SRI 21009 in mice relative to sulindac. Following a once a day dosing schedule, the maximum tolerated dose of sulindac is estimated to be 50 mg/kg in comparison to 300 mg/kg for SRI 21009.

tumor cells = experiment: Cytostatic and cytotoxic activity; type: cell-based; details: FIGS. 3A and 3B, compared with sulindac sulfide
Text: Cytotoxic activity is defined as the ability the treatment to reduce cell number below the number when treatment was initiated and is an indicator of chemotherapeutic efficacy. Cytostasis is defined as the ability of the treatment to reduce cell number relative to untreated cells and is an indicator of chemopreventive efficacy.

COX-2 = molecular target: T1, COX-2 (Homo sapiens, UniProt P35354); experiment: COX-2 inhibitory activity; type: biochemical
T1 sequence (P35354 18-604): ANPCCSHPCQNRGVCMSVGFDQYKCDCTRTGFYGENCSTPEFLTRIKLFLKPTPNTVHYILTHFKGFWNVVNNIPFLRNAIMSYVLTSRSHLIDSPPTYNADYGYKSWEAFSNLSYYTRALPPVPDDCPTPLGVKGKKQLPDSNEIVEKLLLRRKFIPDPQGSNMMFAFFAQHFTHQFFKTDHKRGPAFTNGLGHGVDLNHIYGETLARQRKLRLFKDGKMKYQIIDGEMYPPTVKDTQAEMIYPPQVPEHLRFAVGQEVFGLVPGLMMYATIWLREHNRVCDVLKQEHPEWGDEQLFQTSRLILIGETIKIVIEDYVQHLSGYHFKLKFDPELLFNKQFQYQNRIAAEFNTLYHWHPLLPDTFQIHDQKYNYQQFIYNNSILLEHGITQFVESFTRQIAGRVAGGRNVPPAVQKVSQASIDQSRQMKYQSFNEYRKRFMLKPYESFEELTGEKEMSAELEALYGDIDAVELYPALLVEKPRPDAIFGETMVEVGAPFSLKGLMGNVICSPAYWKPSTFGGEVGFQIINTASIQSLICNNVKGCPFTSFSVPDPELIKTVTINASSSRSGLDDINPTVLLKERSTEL

[3] = tested on: human colon HT29 colon tumor cells; experiment: Antitumor activity in athymic nude mice implanted with HT29 tumor cells; type: in vivo; details: 300 mg/kg, once a day dosing schedule, HT29 xenograft
[4] = tested on: panel of histologically diverse tumor cell types; experiment: Growth inhibitory activity against a panel of tumor cell types; type: cell-based; details: FIG. 2
[5] = Oral bioavailability, plasma levels after oral administration; type: in vivo
COX-1 = COX-1 (Homo sapiens, UniProt P23219); experiment: COX-1 inhibitory activity; type: biochemical
Chain of COX-1 (P23219 24-599): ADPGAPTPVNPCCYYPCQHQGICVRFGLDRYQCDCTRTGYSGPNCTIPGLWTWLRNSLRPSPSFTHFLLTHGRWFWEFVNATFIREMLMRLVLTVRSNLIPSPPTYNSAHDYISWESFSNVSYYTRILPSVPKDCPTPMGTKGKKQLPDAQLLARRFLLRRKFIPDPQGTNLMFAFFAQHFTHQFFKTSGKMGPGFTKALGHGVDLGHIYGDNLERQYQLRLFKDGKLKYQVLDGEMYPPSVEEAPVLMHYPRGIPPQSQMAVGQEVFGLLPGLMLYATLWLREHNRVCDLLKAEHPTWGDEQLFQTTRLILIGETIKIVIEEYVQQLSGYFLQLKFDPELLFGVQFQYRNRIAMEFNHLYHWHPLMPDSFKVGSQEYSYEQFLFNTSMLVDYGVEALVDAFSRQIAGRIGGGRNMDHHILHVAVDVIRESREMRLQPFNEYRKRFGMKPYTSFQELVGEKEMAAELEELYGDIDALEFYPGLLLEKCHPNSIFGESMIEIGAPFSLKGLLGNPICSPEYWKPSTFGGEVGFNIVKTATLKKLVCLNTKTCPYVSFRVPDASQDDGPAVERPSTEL

[6] = Homo sapiens, HT-29, read-out: IC50 value, growth inhibitory activity
[7] = read-out: IC50, growth inhibitory activity, human HT29 colon tumor cell line, Table B lower part
[8] = read-out: IC50 value, growth inhibitory activity, human HT29 colon tumor cell line, Table B upper part
[9] = Homo sapiens, HT-29, read-out: cytotoxity IC50 values (50% inhibitory concentration)

Compound: CC1=C(CC(=O)NCCN2CCNCC2)c2cc(F)ccc2C1=Cc1ccc([S+](C)[O-])cc1 (centres unmarked) [SRI 21113, 5-Fluoro-2-methyl-1-[[4-(methylsulfinyl)phenyl]methylene]-N-[2-(1-piperazinyl)ethyl]-1H-indene-3-acetamide]
- IC50 [1, 6]: 76.9 µM

Compound: CC1=C(CC(=O)NCCN(C)C)c2cc(F)ccc2/C1=C\c1ccc(S(C)(=O)=O)cc1 [SRI 21487]
- IC50 [1, 7]: 10 µM

Compound: CSc1ccc(/C=C2/C(C)=C(CC(=O)Nc3ccc(N(C)C)cc3)c3cc(F)ccc32)cc1 [SRI 21623, N-[[4-(Dimethylamino)phenyl]-(Z)-5-fluoro-2-methyl-3-[[4-(methylthio)phenyl]methylene]]-1H-indene-3-acetamide]
- solubility during the bioassay [1]: solubility issues during the bioassay
- IC50 [1, 7]: > 100 µM

Compound: CC1=C(CC(=O)O)c2cc(F)ccc2/C1=C\c1ccc([S+](C)[O-])cc1 (centres unmarked) [Sulindac sulfoxide, Sulindac]
- IC50 [1, 8]: 450 µM
- IC50 ([1]; read-out: cytotoxity IC50 values (50% inhibitory concentration), human colon tumor cells, in vitro): 479 µM
- maximum tolerated dose ([2]; mice, once a day dosing schedule): ~50 mg/kg

Compound: CC1=C(CC(=O)NCCc2c[nH]cn2)c2cc(F)ccc2C1=Cc1ccc([S+](C)[O-])cc1 (centres unmarked) [SRI 21229]
- IC50 [1, 8]: 32.6 µM

Compound: CC1=C(CC(=O)NCCc2cccnc2)c2cc(F)ccc2C1=Cc1ccc([S+](C)[O-])cc1 (centres unmarked) [SRI 21162, 5-Fluoro-2-methyl-1-[[4-(methylsulfinyl)phenyl]methylene]-N-[2-(3-pyridinyl)ethyl]-1H-indene-3-acetamide]
- IC50 [1, 6]: 99.8 µM

Compound: CSc1ccc(/C=C2/C(C)=C(CC(=O)NCc3ccc(N(C)C)cc3)c3cc(F)ccc32)cc1 [SRI 21540, N-[[4-(Dimethylamino)phenyl]methyl]-(Z)-5-fluoro-2-methyl-3-[[4-(methylthio)phenyl]methylene]-1H-indene-3-acetamide]
- IC50 [1, 7]: 3.22 µM

Compound: CCN(CC)CCNC(=O)CC1=C(C)C(=Cc2ccc([S+](C)[O-])cc2)c2ccc(F)cc21 (centres unmarked) [SRI 21276]
- IC50 [1, 8]: 18.2 µM

Compound: CC1=C(CC(=O)NCCN(C)C)c2cc(F)ccc2C1=Cc1ccc([S+](C)[O-])cc1 (centres unmarked) [SRI 21004, N-[2-(Dimethylamino)ethyl]-5-fluoro-2-methyl-1-[[4-(methylsulfinyl)phenyl]methylene]-1H-indene-3-acetamide]
- IC50 [1, 6]: 25.1 µM
- IC50 [1, 9]: 29.2 µM
- cytotoxic activity (reduce cell number below the number when treatment was initiated) (tumor cells): greater potential for chemotherapeutic efficacy compared with sulindac sulfide

Compound: CSc1ccc(/C=C2/C(C)=C(CC(=O)NCCN(C)C)c3cc(F)ccc32)cc1 [SRI 21009, N-[2-(Dimethylamino)ethyl]-5-fluoro-2-methyl-1-[[4-(methylsulfide)phenyl]methylene]-1H-indene-3-acetamide]
- IC50 (COX-2): 164 µM
- antitumor activity [3]: as effective as sulindac at 50 mg/kg
- IC50 [1, 6]: 1.47 µM
- IC50 [1, 9]: 1.47 µM
- growth inhibitory activity across tumor cell types [4]: enhanced sensitivity of tumor cells derived from colorectal tumors compared with other tumor types
- MTD ([2]; mouse, in vivo): ~300 mg/kg
- sulindac sulfoxide, sulfone, or sulfide detected in the plasma ([5]; following SRI 21009 administration): Negligible amounts
- achievable plasma levels ([5]; oral administration, single dose of 200 mg/kg): exceeded the IC50 value for in vitro growth inhibition
- IC50 (COX-1): 1480 µM

Compound: CSc1ccc(/C=C2/C(C)=C(CC(=O)O)c3cc(F)ccc32)cc1 [Sulindac sulfide, reference compound]
- IC50 [1, 6]: 45.2 µM
- IC50 [1, 9]: 71.2 µM

Compound: CC1=C(CC(=O)Nc2ccc(N(C)C)cc2)c2cc(F)ccc2/C1=C\c1ccc([S+](C)[O-])cc1 (centres unmarked) [SRI 21590, N-[[4-(Dimethylamino)phenyl]-(Z)-5-fluoro-2-methyl-3-[[4-(methylsulfinyl)phenyl]methylene]]-1H-indene-3-acetamide]
- IC50 [1, 7]: 230 µM

Compound: CC1=C(CC(=O)NCCN)c2cc(F)ccc2C1=Cc1ccc([S+](C)[O-])cc1 (centres unmarked) [SRI 21185, N-(2-Aminoethyl)-5-fluoro-2-methyl-1-[[4-(methylsulfinyl)phenyl]methylene]-1H-indene-3-acetamide]
- IC50 [1, 6]: 85.2 µM

Compound: CNCCN(C)C(=O)CC1=C(C)/C(=C/c2ccc(SC)cc2)c2ccc(F)cc21 [SRI 21596]
- IC50 [1, 7]: 1.62 µM

Compound: CC1=C(CC(=O)NCCN2CCOCC2)c2cc(F)ccc2C1=Cc1ccc([S+](C)[O-])cc1 (centres unmarked) [SRI 21178, 5-Fluoro-2-methyl-1-[[4-(methylsulfinyl)phenyl]methylene]-N-[2-(4-morpholinyl)ethyl]-1H-indene-3-acetamide]
- IC50 [1, 6]: 114 µM

Compound: CC1=C(CC(=O)NCc2ccc(N(C)C)cc2)c2cc(F)ccc2C1=Cc1ccc([S+](C)[O-])cc1 (centres unmarked) [SRI 21275, N-[[4-(Dimethylamino)phenyl]methyl]-5-fluoro-2-methyl-1-[[4-(methylsulfinyl)phenyl]methylene]-1H-indene-3-acetamide]
- IC50 [1, 6]: 6.3 µM

Compound: CC1=C(CC(=O)NCC2CCCN2C)c2cc(F)ccc2C1=Cc1ccc([S+](C)[O-])cc1 (centres unmarked) [SRI 21008, 5-Fluoro-2-methyl-N-[(1-methyl-2-pyrrolidinyl)methyl]-1-[[4-(methylsulfinyl)phenyl]methylene]-1H-indene-3-acetamide]
- IC50 [1, 6]: 18.7 µM

Compound: N,2-Dimethyl-N-[2-(dimethylamino)ethyl]-5-fluoro-1-[[4-ethylsulfinyl)phenyl]methylene]-1H-indene-3-acetamide [SRI 21179]
- IC50 [1, 8]: 19.8 µM

Compound: CC1=C(CC(=O)N2CCN(C)CC2)c2cc(F)ccc2C1=Cc1ccc([S+](C)[O-])cc1 (centres unmarked) [SRI 21387, Ethanone, 2-[5-fluoro-2-methyl-1-[[4-(methylsulfinyl)phenyl]methylene]-1H-inden-3-yl]-1-(4-methylpiperazinyl)]
- IC50 [1, 7]: 71 µM

Compound: CC1=C(CC(=O)NCCN2CCCC2)c2cc(F)ccc2C1=Cc1ccc([S+](C)[O-])cc1 (centres unmarked) [SRI 21169, 5-Fluoro-2-methyl-1-[[4-(methylsulfinyl)phenyl]methylene]-N-[2-(1-pyrrolidinyl)ethyl]-1H-indene-3-acetamide]
- IC50 [1, 6]: 17.2 µM

Compound: CC1=C(CC(=O)NCCN2CCCCC2)c2cc(F)ccc2C1=Cc1ccc([S+](C)[O-])cc1 (centres unmarked) [SRI 21114, 5-Fluoro-2-methyl-1-[[4-(methylsulfinyl)phenyl]methylene]-N-[2-(1-piperidinyl)ethyl]-1H-indene-3-acetamide]
- IC50 [1, 6]: 19.7 µM
